The target in test [1] is Glycogen synthase kinase-3 alpha (Homo sapiens) (UniProt P49840). The test is described as follows: Inhibition of human recombinant GSK3A at 40 nM in presence of ATP by radiometric assay relative to control.
Test [2] deals with T1, Tyrosine-protein kinase receptor TYRO3 (Homo sapiens) (UniProt Q06418).
T1 sequence (whole entry): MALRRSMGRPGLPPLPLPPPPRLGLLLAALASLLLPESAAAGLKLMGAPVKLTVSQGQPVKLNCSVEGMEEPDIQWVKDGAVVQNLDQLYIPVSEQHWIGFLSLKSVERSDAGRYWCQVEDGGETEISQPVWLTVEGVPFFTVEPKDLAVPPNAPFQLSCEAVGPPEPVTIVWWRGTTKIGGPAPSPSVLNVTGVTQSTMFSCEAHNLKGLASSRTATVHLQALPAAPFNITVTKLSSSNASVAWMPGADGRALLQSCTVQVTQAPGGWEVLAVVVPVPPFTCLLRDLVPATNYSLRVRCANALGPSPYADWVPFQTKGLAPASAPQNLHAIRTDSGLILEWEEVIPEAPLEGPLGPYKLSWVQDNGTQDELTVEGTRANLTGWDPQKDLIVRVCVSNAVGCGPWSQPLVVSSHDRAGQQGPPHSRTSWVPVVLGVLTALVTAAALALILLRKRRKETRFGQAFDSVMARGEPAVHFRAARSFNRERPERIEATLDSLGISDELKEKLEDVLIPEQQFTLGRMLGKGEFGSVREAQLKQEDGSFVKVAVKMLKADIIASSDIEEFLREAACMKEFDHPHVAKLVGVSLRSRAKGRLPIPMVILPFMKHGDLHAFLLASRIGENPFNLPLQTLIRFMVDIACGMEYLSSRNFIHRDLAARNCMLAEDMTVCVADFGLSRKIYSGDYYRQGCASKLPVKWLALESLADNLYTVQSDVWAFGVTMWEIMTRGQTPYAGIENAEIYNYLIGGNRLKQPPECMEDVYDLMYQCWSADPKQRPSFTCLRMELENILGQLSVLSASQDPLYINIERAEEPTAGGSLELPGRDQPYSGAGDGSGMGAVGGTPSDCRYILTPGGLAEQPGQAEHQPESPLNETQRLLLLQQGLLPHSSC
The test is described as follows: Inhibition of human recombinant TYRO3 at 40 nM in presence of ATP by radiometric assay relative to control.

The target of test [3] is T2, Homeodomain-interacting protein kinase 4 (Homo sapiens) (UniProt Q8NE63).
T2 sequence (whole entry): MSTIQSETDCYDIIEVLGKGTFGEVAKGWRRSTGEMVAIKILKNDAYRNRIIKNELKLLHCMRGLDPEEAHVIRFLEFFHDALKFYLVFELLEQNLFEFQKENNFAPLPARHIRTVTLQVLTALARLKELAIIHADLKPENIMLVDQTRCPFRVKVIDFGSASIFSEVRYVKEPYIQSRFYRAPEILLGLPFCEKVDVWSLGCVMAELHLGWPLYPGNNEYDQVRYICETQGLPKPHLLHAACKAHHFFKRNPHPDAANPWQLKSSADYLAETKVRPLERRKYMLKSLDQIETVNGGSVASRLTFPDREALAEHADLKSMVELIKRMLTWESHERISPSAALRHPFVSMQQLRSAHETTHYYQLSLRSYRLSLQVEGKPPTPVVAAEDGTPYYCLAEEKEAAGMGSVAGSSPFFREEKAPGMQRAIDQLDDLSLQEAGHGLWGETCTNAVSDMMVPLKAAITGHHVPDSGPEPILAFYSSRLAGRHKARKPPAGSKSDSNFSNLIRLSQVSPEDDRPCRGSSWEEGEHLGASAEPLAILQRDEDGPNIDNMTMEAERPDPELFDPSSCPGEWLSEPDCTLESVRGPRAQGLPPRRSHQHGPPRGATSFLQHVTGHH
The test can be described thus: Inhibition of human recombinant HIPK4 at 500 nM in presence of ATP by radiometric assay relative to control.

Test [4] addresses T3, Mitogen-activated protein kinase kinase kinase 7 (Homo sapiens) (UniProt O43318).
T3 sequence (whole entry): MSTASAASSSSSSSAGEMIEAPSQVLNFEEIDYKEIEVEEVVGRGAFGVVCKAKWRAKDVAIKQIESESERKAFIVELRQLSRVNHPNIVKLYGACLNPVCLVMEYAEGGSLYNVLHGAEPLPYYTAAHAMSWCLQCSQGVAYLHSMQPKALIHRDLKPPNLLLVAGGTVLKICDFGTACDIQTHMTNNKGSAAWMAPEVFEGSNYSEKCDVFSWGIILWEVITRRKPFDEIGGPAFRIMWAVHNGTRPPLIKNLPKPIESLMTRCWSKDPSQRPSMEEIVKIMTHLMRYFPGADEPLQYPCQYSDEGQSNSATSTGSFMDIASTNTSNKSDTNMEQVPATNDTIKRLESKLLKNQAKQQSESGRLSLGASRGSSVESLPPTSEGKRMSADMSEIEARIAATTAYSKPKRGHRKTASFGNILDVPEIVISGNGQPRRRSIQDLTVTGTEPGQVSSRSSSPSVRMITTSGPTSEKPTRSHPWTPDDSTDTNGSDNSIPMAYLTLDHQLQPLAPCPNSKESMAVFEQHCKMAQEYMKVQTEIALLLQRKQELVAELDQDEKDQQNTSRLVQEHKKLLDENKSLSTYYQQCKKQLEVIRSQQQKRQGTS
The test is described as follows: Inhibition of human recombinant TAK1 at 500 nM in presence of ATP by radiometric assay relative to control.

Test [5] deals with Serine/threonine-protein kinase 32C (Homo sapiens) (UniProt Q86UX6). The test can be described thus: Inhibition of human recombinant YANK3 at 500 nM in presence of ATP by radiometric assay relative to control.
In test [6] the target is Platelet-derived growth factor receptor alpha (Homo sapiens) (UniProt P16234). The test can be described thus: Inhibition of human recombinant PDGFRa at 500 nM related to control ULK1.

Molecules are shown by their SMILES.

Chain of Serine/threonine-protein kinase 32C (Homo sapiens) (Q86UX6 whole entry): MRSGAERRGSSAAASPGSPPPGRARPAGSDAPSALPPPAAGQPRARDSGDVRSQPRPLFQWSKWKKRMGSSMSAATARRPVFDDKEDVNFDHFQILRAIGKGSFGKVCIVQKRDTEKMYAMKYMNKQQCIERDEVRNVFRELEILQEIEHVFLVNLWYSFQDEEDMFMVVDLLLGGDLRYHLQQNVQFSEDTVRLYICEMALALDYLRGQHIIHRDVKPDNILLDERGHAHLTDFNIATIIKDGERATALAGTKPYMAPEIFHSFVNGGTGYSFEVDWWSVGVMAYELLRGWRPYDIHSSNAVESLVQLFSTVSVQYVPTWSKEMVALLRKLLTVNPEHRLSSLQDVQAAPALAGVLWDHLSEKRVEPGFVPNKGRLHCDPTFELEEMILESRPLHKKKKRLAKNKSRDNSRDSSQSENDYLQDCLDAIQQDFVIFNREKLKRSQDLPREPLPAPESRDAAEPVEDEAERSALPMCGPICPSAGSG
Chain of Glycogen synthase kinase-3 alpha (Homo sapiens) (P49840 2-483 limits assumed): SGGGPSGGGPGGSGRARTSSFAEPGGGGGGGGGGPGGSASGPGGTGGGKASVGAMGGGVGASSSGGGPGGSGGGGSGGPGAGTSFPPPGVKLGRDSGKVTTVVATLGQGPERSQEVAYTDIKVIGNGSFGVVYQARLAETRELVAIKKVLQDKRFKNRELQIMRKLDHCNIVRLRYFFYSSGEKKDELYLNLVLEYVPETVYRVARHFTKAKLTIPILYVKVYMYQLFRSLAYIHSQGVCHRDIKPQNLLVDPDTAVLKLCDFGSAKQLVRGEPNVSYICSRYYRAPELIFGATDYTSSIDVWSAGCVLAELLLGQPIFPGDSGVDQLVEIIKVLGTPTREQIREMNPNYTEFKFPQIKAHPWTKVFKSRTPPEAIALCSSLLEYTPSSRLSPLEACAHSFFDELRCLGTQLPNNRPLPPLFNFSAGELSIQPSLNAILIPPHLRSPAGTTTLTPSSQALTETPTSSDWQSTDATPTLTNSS
Chain of Platelet-derived growth factor receptor alpha (Homo sapiens) (P16234 whole entry): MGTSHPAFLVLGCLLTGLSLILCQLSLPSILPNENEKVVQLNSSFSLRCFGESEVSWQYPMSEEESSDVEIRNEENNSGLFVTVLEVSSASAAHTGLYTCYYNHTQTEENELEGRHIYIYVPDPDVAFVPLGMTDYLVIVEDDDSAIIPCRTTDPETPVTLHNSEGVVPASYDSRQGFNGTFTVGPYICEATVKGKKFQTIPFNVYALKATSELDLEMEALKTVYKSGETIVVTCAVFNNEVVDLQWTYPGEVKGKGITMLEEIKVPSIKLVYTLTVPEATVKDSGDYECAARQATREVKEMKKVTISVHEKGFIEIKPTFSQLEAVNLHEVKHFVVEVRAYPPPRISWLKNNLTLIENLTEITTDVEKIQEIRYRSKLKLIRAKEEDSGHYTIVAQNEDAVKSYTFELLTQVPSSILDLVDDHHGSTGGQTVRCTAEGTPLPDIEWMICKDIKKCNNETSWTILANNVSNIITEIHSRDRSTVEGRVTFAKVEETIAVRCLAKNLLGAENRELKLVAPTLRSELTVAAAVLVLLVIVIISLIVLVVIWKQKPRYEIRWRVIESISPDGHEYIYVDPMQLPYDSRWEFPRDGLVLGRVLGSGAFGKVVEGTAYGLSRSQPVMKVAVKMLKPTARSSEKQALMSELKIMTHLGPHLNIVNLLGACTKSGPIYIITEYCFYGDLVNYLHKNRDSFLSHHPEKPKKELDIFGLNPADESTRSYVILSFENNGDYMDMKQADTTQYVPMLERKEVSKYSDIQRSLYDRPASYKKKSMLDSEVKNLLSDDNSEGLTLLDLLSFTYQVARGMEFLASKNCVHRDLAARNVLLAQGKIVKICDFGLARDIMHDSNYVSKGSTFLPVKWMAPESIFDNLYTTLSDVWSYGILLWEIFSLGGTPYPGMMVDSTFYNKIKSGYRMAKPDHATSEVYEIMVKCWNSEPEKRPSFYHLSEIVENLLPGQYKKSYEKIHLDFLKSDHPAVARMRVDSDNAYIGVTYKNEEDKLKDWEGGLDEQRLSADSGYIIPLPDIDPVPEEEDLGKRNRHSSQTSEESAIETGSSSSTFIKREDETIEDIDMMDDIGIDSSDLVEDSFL

Take `O=C(N[C@@H](C1CC1)C(F)(F)F)c1cc(-c2cnn3cc(-c4ccc(F)cc4)cnc23)cs1`: the inhibition in test [1] and in test [2] was 0% each time.
As to `CNC(=O)c1ccccc1Oc1nc(Nc2cc(OC)c(OC)c(OC)c2)ncc1Br`, the results for the inhibition in test [3], in test [4] and in test [5] were 9%, 2% and 0%, respectively. Moreover, in test [6], the fold change (FC) is 0.

Source of the values: ChEMBL document CHEMBL5653631, “A Potent and Selective ULK1 Inhibitor Suppresses Autophagy and Sensitizes Cancer Cells to Nutrient Stress” (iScience, 2018).
